Article PMC10508484, “Development and application of a PBPK modeling strategy to support antimalarial drug development” (CPT: Pharmacometrics & Systems Pharmacology, 2023)
Like-named read-outs stand apart in the source and are kept apart here.

Assays:
UGT1A9 = test: Metabolism by UGT1A9; assay type: in vitro ADME, human; details: equal contribution assumed
Description: (§1) In nearly all cases the fraction of systemic elimination metabolised by a given enzyme (fm) determined in vitro was unavailable in the literature.

[1] = In vitro flags for victim and perpetrator properties conferring DDI liability; assay type: in vitro ADME, human; details: in vitro flag, mainly based on in vitro determinations
Caco-2 cells = details: calibrated against propranolol; plasma as medium for atovaquone and piperaquine; ref Charman et al., 2020 1; cited from earlier work
CYP1A2 = details: read-out: CYP1A2 Ki; ref Charman et al., 2020 1; cited from earlier work
[2] = cited from earlier work
[3] = 1987 9, proguanil Jeppesen et al., 1997 34, cited from earlier work
[4] = PBPK absorption inputs (fa, ka, tlag, Qgut, Fg); parameters: species or system human; details: for fa: Relative fa (in vivo fasted AUC / fed AUC; Reuter et al., 2015 for DHA, Crevoisier et al., 1997 for mefloquine)
Description: Initial models were built based on available physicochemical and in vitro data to give a ‘bottom-up’ prediction. Areas of uncertainty were highlighted, and the potential impact of uncertainty associated with such parameters was investigated using sensitivity analysis. Available clinical PK data were then used to evaluate and, if required, refine the initial ‘bottom-up’ model. Care was taken to split data into training and test sets wherever possible. The model verification strategy differed across compounds based on availability of different types of clinical data. […] Clinical studies used for drug model development and verification are reported in Table S2 (PK) and Table S3 (DDIs).

[5] = cited from earlier work; remark: listed apart in the source
[6] = PBPK input; ref Charman et al., 2020 1; cited from earlier work
UGT2B7 = test: Metabolism by UGT2B7; assay type: in vitro ADME, human; details: equal contribution assumed
Description: as §1

[7] = Fraction unbound in human liver microsomes (fumic); details: extrapolated from value measured at 0.4 mg/mL to 0.1 mg/mL, method of Austin et al., 2002
in vitro = details: human, plasma
[8] = piperaquine 960 mg SD + clarithromycin 500 mg SD; ref Eurartesim - EMA Website, 12; cited from earlier work
CYP3A4 [9] = biological target: T1, CYP3A4 (Homo sapiens, UniProt P08684); test: CYP3A4 inhibition (direct and time-dependent); details: Derived from IC50 shift data (single time point), unpublished data
CYP3A4 [10] = biological target: T1, CYP3A4; details: cited from earlier work
CYP3A4 [11] = biological target: T1, CYP3A4
Description: as §1

CYP2C9 = test: Metabolism by CYP2C9 (CLint, fm); assay type: in vitro ADME, human
Description: as §1

[12] = Blood to plasma ratio (B:P); details: PBPK input; unpublished (in-house) data
CYP2C19 = CYP2C19 (Homo sapiens, UniProt P33261); test: Metabolism by CYP2C19 (CLint, fm); assay type: in vitro ADME
Description: as §1

CYP3A4 [13] = biological target: T1, CYP3A4; test: in vitro
[14] = Hepatic / HLM intrinsic clearance, enzyme not defined; details: human, liver microsomes
[15] = measured (0.4 mg/mL protein where stated); ref Charman et al., 2020 1; cited from earlier work
[16] = ref Charman et al., 2020 1; cited from earlier work
OCT2 = details: read-out: OCT2 Ki; ref Kusuhara et al., 2011 70; cited from earlier work
OCT1 = tested on: OCT1; parameters: method as in Ito et al., 2010 68, Panfen et al., 2019 69; details: average; ref Ito et al., 2010 68, Panfen et al., 2019 69; cited from earlier work
MATEs = biological target: MATEs; parameters: method as in Miyake et al., 2021 71; details: average of MATE1 and MATE2-K; ref Miyake et al., 2021 71; cited from earlier work
[17] = HLM CLint 31.6 µL/min/mg with 20% split equally between CYP2C9 and CYP2C19
[18] = Relative fa (in vivo fasted AUC / high fat fed AUC), EMA Website

T1 sequence (P08684 whole entry): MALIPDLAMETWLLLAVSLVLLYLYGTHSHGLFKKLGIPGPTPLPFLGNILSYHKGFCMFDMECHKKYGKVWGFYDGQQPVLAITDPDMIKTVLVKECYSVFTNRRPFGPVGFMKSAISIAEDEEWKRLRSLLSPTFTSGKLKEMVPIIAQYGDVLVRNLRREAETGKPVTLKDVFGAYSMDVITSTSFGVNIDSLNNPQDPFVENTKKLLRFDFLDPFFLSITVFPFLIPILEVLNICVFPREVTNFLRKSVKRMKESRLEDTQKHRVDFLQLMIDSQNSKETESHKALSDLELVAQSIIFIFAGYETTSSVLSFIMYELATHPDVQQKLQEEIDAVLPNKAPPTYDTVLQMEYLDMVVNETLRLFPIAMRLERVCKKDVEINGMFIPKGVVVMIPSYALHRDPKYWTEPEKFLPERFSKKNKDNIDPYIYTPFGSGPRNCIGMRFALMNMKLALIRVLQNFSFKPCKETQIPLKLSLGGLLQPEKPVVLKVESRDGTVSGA
Chain of CYP2C19 (P33261 whole entry): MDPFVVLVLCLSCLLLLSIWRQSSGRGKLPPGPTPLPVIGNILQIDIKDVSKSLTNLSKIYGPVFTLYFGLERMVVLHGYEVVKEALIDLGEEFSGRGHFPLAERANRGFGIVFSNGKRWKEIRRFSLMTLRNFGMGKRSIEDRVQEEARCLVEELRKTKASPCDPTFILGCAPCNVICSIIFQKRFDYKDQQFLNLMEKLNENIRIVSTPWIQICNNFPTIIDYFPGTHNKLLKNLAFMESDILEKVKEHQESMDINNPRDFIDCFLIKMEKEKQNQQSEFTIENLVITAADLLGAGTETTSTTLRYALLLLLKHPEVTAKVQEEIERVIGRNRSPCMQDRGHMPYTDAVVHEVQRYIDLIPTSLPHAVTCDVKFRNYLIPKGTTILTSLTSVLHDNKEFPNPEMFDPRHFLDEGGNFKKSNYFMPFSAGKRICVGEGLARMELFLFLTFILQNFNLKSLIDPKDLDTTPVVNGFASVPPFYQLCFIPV

## C[C@H]1[C@@H](O)O[C@@H]2O[C@@]3(C)CC[C@H]4[C@H](C)CC[C@@H]1[C@@]24OO3 [DHA, dihydroartemisinin]
UGT1A9
  fmUGT1A9: 50%
[1]
  Risk as a perpetrator: CYP1A2 inhibitor
  Risk as a victim: Substrate of UGT1A9 and UGT2B7
Caco-2 cells
  Caco-2 (Papp A-B): 49 10-6 cm/s
CYP1A2
  Ki: 4.38 µM
[2]; 4 mg/kg SD, 0-inf, ref Na-Bangchang et al., 2004 20
  AUC Obs: 907 ng·h/mL
[2]; 120 mg SD, 0-inf, ref Chinh et al., 2009 23
  AUC Obs: 370 ng·h/mL
[2]; 180 mg SD (artesunate), 0-inf, ref Jittamala et al., 2015 15
  AUC Obs: 1400 ng·h/mL
[2]; 240 mg SD, 0-inf, ref Le et al., 1999 22
  AUC Obs: 1980 ng·h/mL
[2]; 300 mg SD, 0-inf, ref Na-Bangchang et al., 1997 21
  AUC Obs: 2018 ng·h/mL
[3]; clinically observed oral (in vivo) clearance, pyronaridine: blood, ref amodiaquine Winstanley et al., DEAQ Akande et al., 2015 8, Scarsi et al., 2014 35, Tarning et al., 2012 36, Orrell et al., 2008 37, DHA Na-Bangchang et al., 2004 42, lumefantrine Lefevre et al., 2002 52, Hoglund et al., 2015 53, mefloquine Charles et al., 2007 56, pyronaridine Jittama
  CL PO: 273.2 L/h
[4]; listed as DHA (administered as DHA)
  fa: 0.71
[4]; listed as DHA (administered as artesunate)
  fa: 1
[5]; ref amodiaquine, DEAQ Hietala, 2009 2, atovaquone Nixon et al., 2013 13, DHA Batty et al., 2004 41, mefloquine, tafenoquine (also AGP) Zsila et al., 2008 54
  Main binding protein: AGP
[6]
  Log P: 2.3
UGT2B7
  fmUGT2B7: 50%
[7]
  fumic: 0.964

## Clc1ccc2c(N3CCN(CCCN4CCN(c5ccnc6cc(Cl)ccc56)CC4)CC3)ccnc2c1 [Piperaquine, piperaquine]
In vitro
  fraction unbound: 0.006
[8]
  AUC ratio Obs: ≤ 2 fold
  Cmax ratio Obs: ≤ 2 fold
CYP3A4 [9]
  CYP3A4 KI: 0.12 µM
[1]
  Risk as a perpetrator: CYP3A4 time‐dependent inhibitor
  Risk as a victim: Substrate of CYP3A4, CYP2C9 and CYP2C19
CYP3A4 [10]
  Ki: 3 µM
Caco-2 cells
  Caco-2 (Papp A-B): 233 10-6 cm/s
[2]; 960 mg QD (fasted, Day 3), 0-72 h, ref Eurartesim S06, Females <75 kg
  AUC Obs: 5380 ng·h/mL
[2]; 960 mg QD (fasted, Day 3), 0-72 h, ref Eurartesim S06, Males <75 kg
  AUC Obs: 3930 ng·h/mL
[2]; 960 mg QD (fasted, Day 3), ref Eurartesim S06, Females <75 kg
  Cmax Obs: 505 ng/mL
[2]; 960 mg QD (fasted, Day 3), ref Eurartesim S06, Males <75 kg
  Cmax Obs: 280 ng/mL
[2]; 960 mg QD (fed, Day 3), 0-72 h, ref Eurartesim S06, Females <75 kg
  AUC Obs: 12500 ng·h/mL
[2]; 960 mg QD (fed, Day 3), 0-72 h, ref Eurartesim S06, Males <75 kg
  AUC Obs: 10700 ng·h/mL
[2]; 960 mg QD (fed, Day 3), ref Eurartesim S06, Females <75 kg
  Cmax Obs: 1270 ng/mL
[2]; 960 mg QD (fed, Day 3), ref Eurartesim S06, Males <75 kg
  Cmax Obs: 1120 ng/mL
[2]; 1280 mg QD (fasted), 0-72 h, ref Eurartesim S06, Males ≥75 kg
  AUC Obs: 3930 ng·h/mL
[2]; 1280 mg QD (fasted), ref Eurartesim S06, Males ≥75 kg
  Cmax Obs: 280 ng/mL
[2]; 1280 mg QD (fed), 0-72 h, ref Eurartesim S06, Males ≥75 kg EMA Website, 33
  AUC Obs: 10700 ng·h/mL
[2]; 1280 mg QD (fed), ref Eurartesim S06, Males ≥75 kg EMA Website, 33
  Cmax Obs: 1120 ng/mL
[2]; 1280 mg SD tetraphosphate salt, 0-72 h, ref EMA Website, 33
  AUC Obs: 3010 ng·h/mL
[2]; 1280 mg SD tetraphosphate salt, ref EMA Website, 33
  Cmax Obs: 190 ng/mL
CYP3A4 [11]
  fmCYP3A4: 80%
CYP3A4 [11]; microsomes
  CLint CYP3A4: 25.3 µL/min/pmol
CYP2C9; [17]
  CLint CYP2C9: 3.16 µL/min/pmol
CYP2C9; fraction metabolised used in the PBPK model
  fmCYP2C9: 10%
[4]; [18]
  fa - 960 mg fasted: 0.4
  fa - 1280 mg fasted: 0.33
[4]; Relative fa, EMA Website
  fa - 960 mg fed: 1
  fa - 1280 mg fed: 1
[6]
  Log P: 5.27
[12]
  B:P: 0.9
CYP2C19; [17]
  CLint CYP2C19: 3.16 µL/min/pmol
CYP2C19; fraction metabolised used in the PBPK model (proguanil: total, all routes)
  fmCYP2C19: 10%
CYP3A4 [13]
  kinact: 0.000347 s⁻¹
[14]
  microsomal CLint: 31.6 µL/min/mg
[15]
  fumic: 0.013

## CCc1nc(N)nc(N)c1-c1ccc(Cl)cc1 [Pyrimethamine, pyrimethamine]
[16]
  pKa(s): 6.86
OCT2
  Ki: 10 µM
[1]
  Risk as a perpetrator: OCT2 and MATE inhibitor
OCT1
  Ki: 2.3 µM
Caco-2 cells
  Caco-2 (Papp A-B): 59.8 10-6 cm/s
[2]; in vivo, 100 mg
  Cmax Obs: 771 ng/mL
[3]; PBPK input, ref amodiaquine, DEAQ Winstanley et al., atovaquone Rolan et al., 1997 14, azithromycin Lalak et al., 1993 23, carboxyprimaquine Mihaly et al., 1985 26, chloroquine Walker et al., 1987 29, DHA EMA Website, 44, doxycycline Raghuram et al., 1982 48, Nguyen et al., 1989 49, mefloquine Schwartz et al., 1982 57, primaquine White, 1985 62, pyrimeth
  CL renal: 0.0989 L/h
MATEs
  Ki: 0.124 µM
[5]; PBPK input, ref Charman et al., 2020 1
  fu: 0.095
[14]
  microsomal CLint: 1.8 µL/min/mg
